Source: patent US20210251991A1, “SUBSTITUTED 2,2'-BIPYRIMIDINYL COMPOUNDS, ANALOGUES THEREOF, AND METHODS USING SAME” (priority 2018, published 2021)

System: HBsAg in HepG2.2.15 cells
Test: HBsAg assay: inhibition of HBsAg in HepG2.2.15 cells (chemiluminescence immunoassay of supernatant)
Type: cell-based, hepatitis B virus
Settings: Hepatitis B virus, HepG2.2.15, 144 h, read-out: sAg EC50, HepG2.2.15 cells, supernatant collected at day 6 after exposure, HBsAg CLIA
Procedure, shortened: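 HepG2.2.15 cells treated with serially diluted compounds (0.5% DMSO), medium and compound refreshed after 2-3 days; supernatant HBsAg measured by chemiluminescence immunoassay at day 6. EC50 from dose-response curves; viability assessed in parallel by CellTiter-Glo.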

## CC1c2ccc(F)c(F)c2CCN1c1cnc(-c2ncccn2)nc1 (stereo not shown) [Example 24, 2-([2,2′-Bipyrimidin]-5-yl)-5,6-difluoro-1-methyl-1,2,3,4-tetrahydroisoquinoline]
  EC50: 340 nM

## CCC1c2cc(F)c(F)cc2CCN1c1cnc(-c2ncccn2)nc1 (stereo not shown) [Example 25, 2-([2,2′-Bipyrimidin]-5-yl)-1-ethyl-6,7-difluoro-1,2,3,4-tetrahydroisoquinoline]
  EC50: 85 nM

## COC(=O)CC1c2cc(OC)c(OC)cc2CCN1c1cnc(-c2ncccn2)nc1 (stereo not shown) [Example 26, Methyl 2-(2-([2,2′-bipyrimidin]-5-yl)-6,7-dimethoxy-1,2,3,4-tetrahydroisoquinolin-1-yl) acetate]
  EC50: 1200 nM

## COc1cc2c(cc1OC)C(CC(=O)O)N(c1cnc(-c3ncccn3)nc1)CC2 (stereo not shown) [Example 27, 2-(2-([2,2′-Bipyrimidin]-5-yl)-6,7-dimethoxy-1,2,3,4-tetrahydroisoquinolin-1-yl) acetic Acid]
  EC50: 28000 nM

## CCC1c2ccc(OC)c(OC)c2CCN1c1cnc(-c2ncccn2)nc1 (stereo not shown) [Example 28, 2-([2,2′-Bipyrimidin]-5-yl)-1-ethyl-5,6-dimethoxy-1,2,3,4 Tetrahydroisoquinoline]
  EC50: 180 nM

## CCC1c2cc(OC)c(F)c(F)c2CCN1c1cnc(-c2ncccn2)nc1 (stereo not shown) [Example 29, 1-Ethyl-5,6-difluoro-7-methoxy-2-(2-pyrimidin-2-ylpyrimidin-5-yl)-3,4-dihydro-1H-isoquinoline]
  EC50: 170 nM

## CCC1c2ccc(F)c(F)c2CCN1c1cnc(-c2ncccn2)nc1 (stereo not shown) [Example 32, 1-Ethyl-5,6-difluoro-2-(2-pyrimidin-2-ylpyrimidin-5-yl)-3,4-dihydro-1H-isoquinoline]
  EC50: 2000 nM

## CCC1c2c(OC)ccc(F)c2CCN1c1cnc(-c2ncccn2)nc1 (stereo not shown) [Example 35, 1-Ethyl-5-fluoro-8-methoxy-2-(2-pyrimidin-2-ylpyrimidin-5-yl)-3,4-dihydro-1H-isoquinoline]
  EC50: 620 nM

## CC1c2ccc(F)c(F)c2CCN1c1ccnc(-c2ncccn2)n1 (stereo not shown) [Example 36, 2-([2,2′-Bipyrimidin]-4-yl)-5,6-difluoro-1-methyl-1,2,3,4-tetrahydroisoquinoline]
  EC50: 480 nM

## CCC1c2ccc(F)c(F)c2CCN1c1ccnc(-c2ncccn2)n1 (stereo not shown) [Example 39, 1-Ethyl-5,6-difluoro-2-(2-pyrimidin-2-ylpyrimidin-4-yl)-3,4-dihydro-1H-isoquinoline]
  EC50: 590 nM

## CCC1c2c(OC)ccc(F)c2CCN1c1ccnc(-c2ncccn2)n1 (stereo not shown) [Example 42, 1-Ethyl-5-fluoro-8-methoxy-2-(2-pyrimidin-2-ylpyrimidin-4-yl)-3,4-dihydro-1H-isoquinoline]
  EC50: 62 nM

## CCC1c2ccc(F)c(OC)c2CCN1c1ccnc(-c2ncccn2)n1 (stereo not shown) [Example 46, 1-Ethyl-6-fluoro-5-methoxy-2-(2-pyrimidin-2-ylpyrimidin-4-yl)-3,4-dihydro-1H-isoquinoline]
  EC50: 130 nM

## CCC1c2cc(OC)c(F)c(F)c2CCN1c1ccnc(-c2ncccn2)n1 (stereo not shown) [Example 47, 1-Ethyl-5,6-difluoro-7-methoxy-2-(2-pyrimidin-2-ylpyrimidin-4-yl)-3,4-dihydro-1H-isoquinoline]
  EC50: 480 nM

## CCC1c2cc(F)c(F)cc2CN1c1ccnc(-c2ncccn2)n1 (stereo not shown) [Example 48, 2-([2,2′-Bipyrimidin]-4-yl)-1-ethyl-5,6-difluoroisoindoline]
  EC50: 92 nM

## CCC1c2cc(F)c(F)cc2CN1c1nc(-c2ncccn2)ncc1F (stereo not shown) [Example 51, 1-Ethyl-5,6-difluoro-2-(5-fluoro-[2,2′-bipyrimidin]-4-yl)isoindoline]
  EC50: 27 nM

## CCC1c2cc(F)c(F)cc2CN1c1nc(-c2ncccn2)ncc1C (stereo not shown) [Example 52, 1-Ethyl-5,6-difluoro-2-(5-methyl-[2,2′-bipyrimidin]-4-yl)isoindoline]
  EC50: 43 nM

## CCC1c2cc(F)c(F)cc2CN1c1nc(-c2ncccn2)ncc1Cl (stereo not shown) [Example 53, 2-(5-Chloro-[2,2′-bipyrimidin]-4-yl)-1-ethyl-5,6-difluoroisoindoline]
  EC50: 30 nM

## CCC1c2cc(F)c(F)cc2CN1c1nc(-c2ncccn2)ncc1C1CC1 (stereo not shown) [Example 54, 2-(5-Cyclopropyl-[2,2′-bipyrimidin]-4-yl)-1-ethyl-5,6-difluoroisoindoline]
  EC50: 220 nM

## CCC1c2cc(OC)c(OC)cc2CN1c1ccnc(-c2ncccn2)n1 (stereo not shown) [Example 55, 2-([2,2′-Bipyrimidin]-4-yl)-1-ethyl-5,6-dimethoxyisoindoline]
  EC50: 24 nM

## CCC1c2cc(OC)c(OC)cc2CN1c1nc(-c2ncccn2)ncc1C (stereo not shown) [Example 58, 1-Ethyl-5,6-dimethoxy-2-(5-methyl-[2,2′-bipyrimidin]-4-yl)isoindoline]
  EC50: 2 nM

## CCC1c2cc(OC)c(OC)cc2CN1c1nc(-c2ncccn2)ncc1NC (stereo not shown) [Example 59, 4-(1-Ethyl-5,6-dimethoxyisoindolin-2-yl)-N-methyl-[2,2′-bipyrimidin]-5-amine]
  EC50: 130 nM

## CCC1c2cc(OC)c(OC)cc2CN1c1nc(-c2ncccn2)ncc1Cl (stereo not shown) [Example 60, 2-(5-Chloro-[2,2′-bipyrimidin]-4-yl)-1-ethyl-5,6-dimethoxyisoindoline]
  EC50: 3 nM

## CCC1c2cc(OC)c(OC)cc2CN1c1nc(-c2ncccn2)ncc1C1CC1 (stereo not shown) [Example 61, 2-(5-Cyclopropyl-[2,2′-bipyrimidin]-4-yl)-1-ethyl-5,6-dimethoxyisoindoline]
  EC50: 14 nM

## CCC1c2cc(OC)c(OC)cc2CN1c1nc(-c2ncccn2)ncc1C(C)C (stereo not shown) [Example 62, 1-Ethyl-2-(5-isopropyl-[2,2′-bipyrimidin]-4-yl)-5,6-dimethoxyisoindoline]
  EC50: 1000 nM

## CCC1c2cc(F)c(OC)cc2CN1c1ccnc(-c2ncccn2)n1 (stereo not shown) [Example 63, 2-([2,2′-Bipyrimidin]-4-yl)-1-ethyl-6-fluoro-5-methoxyisoindoline]
  EC50: 21 nM

## CCC1c2cc(F)c(OC)cc2CN1c1nc(-c2ncccn2)ncc1F (stereo not shown) [Example 70, 1-Ethyl-6-fluoro-2-(5-fluoro-[2,2′-bipyrimidin]-4-yl)-5-methoxyisoindoline]
  EC50: 5 nM

## CCC1c2cc(F)c(O)cc2CN1c1nc(-c2ncccn2)ncc1F (stereo not shown) [Example 75, 1-Ethyl-6-fluoro-2-(5-fluoro-[2,2′-bipyrimidin]-4-yl)isoindolin-5-ol]
  EC50: 700 nM

## CCC1c2cc(OC)c(F)cc2CN1c1ccnc(-c2ncccn2)n1 (stereo not shown) [Example 76, 2-([2,2′-Bipyrimidin]-4-yl)-1-ethyl-5-fluoro-6-methoxyisoindoline]
  EC50: 120 nM

## c1cnc(-c2nccc(N3CC4CCC3c3ccccc34)n2)nc1 (stereo not shown) [Example 79, 10-([2,2′-Bipyrimidin]-4-yl)-1,2,3,4-tetrahydro-1,4-(epiminomethano)naphthalene]
  EC50: 6000 nM

## Fc1cnc(-c2ncccn2)nc1N1CC2CCC1c1ccccc12 (stereo not shown) [Example 80, 10-(5-Fluoro-[2,2′-bipyrimidin]-4-yl)-1,2,3,4-tetrahydro-1,4-(epiminomethano)naphthalene]
  EC50: 700 nM

## Cc1cnc(-c2ncccn2)nc1N1CC2CCC1c1ccccc12 (stereo not shown) [Example 81, 10-(5-Methyl-[2,2′-bipyrimidin]-4-yl)-1,2,3,4-tetrahydro-1,4-(epiminomethano)naphthalene]
  EC50: 280 nM

## c1cnc(-c2nccc(N3C4CCC3c3ccccc34)n2)nc1 [Example 82, 9-([2,2′-Bipyrimidin]-4-yl)-1,2,3,4-tetrahydro-1,4-epiminonaphthalene]
  EC50: 9000 nM

## c1cnc(-c2nccc(N3CC4CC3c3ccccc34)n2)nc1 (stereo not shown) [Example 83, 2-([2,2′-Bipyrimidin]-4-yl)-1,2,3,4-tetrahydro-1,4-methanoisoquinoline]
  EC50: 5000 nM

## COc1cc2c(cc1OC)C1CCC2N1c1cnc(-c2ncccn2)nc1 [Example 84, 9-([2,2′-Bipyrimidin]-5-yl)-6,7-dimethoxy-1,2,3,4-tetrahydro-1,4-epiminonaphthalene]
  EC50: 4000 nM

## Cc1cnc(-c2ncccn2)nc1N1C2CCC1c1ccccc12 [Example 85, 9-(5-Methyl-[2,2′-bipyrimidin]-4-yl)-1,2,3,4-tetrahydro-1,4-epiminonaphthalene]
  EC50: 3000 nM

## Fc1cnc(-c2ncccn2)nc1N1C2CCC1c1ccccc12 [Example 86, 9-(5-Fluoro-[2,2′-bipyrimidin]-4-yl)-1,2,3,4-tetrahydro-1,4-epiminonaphthalene]
  EC50: 2400 nM

## COc1cc2c(cc1OC)C1CCC2N1c1nc(-c2ncccn2)ncc1F [Example 87, 9-(5-Fluoro-[2,2′-bipyrimidin]-4-yl)-6,7-dimethoxy-1,2,3,4-tetrahydro-1,4-epiminonaphthalene]
  EC50: 1000 nM

## COc1cc2c(cc1OC)C1CCC2N1c1nc(-c2ncccn2)ncc1C [Example 88, 6,7-Dimethoxy-9-(5-methyl-[2,2′-bipyrimidin]-4-yl)-1,2,3,4-tetrahydro-1,4-epiminonaphthalene]
  EC50: 2000 nM

## CCC1c2cc(OC)c(OC)cc2CN1c1nc(-c2ncccn2)nc2ccoc12 (stereo not shown) [Example 91, 4-(1-Ethyl-5,6-dimethoxyisoindolin-2-yl)-2-(pyrimidin-2-yl)furo[3,2-d]pyrimidine]
  EC50: 150 nM

## CCC1c2cc(OC)c(OC)cc2CN1c1nc(-c2ncccn2)nc2c1COC2 (stereo not shown) [Example 92, 4-(1-Ethyl-5,6-dimethoxyisoindolin-2-yl)-2-(pyrimidin-2-yl)-5,7-dihydrofuro[3,4-d]pyrimidine]
  EC50: 180 nM

## CCC1c2cc(OC)c(OC)cc2CN1c1nc(-c2ncccn2)nc2scnc12 (stereo not shown) [Example 93, 7-(1-Ethyl-5,6-dimethoxy-isoindolin-2-yl)-5-pyrimidin-2-yl-thiazolo[5,4-d]pyrimidine]
  EC50: 200 nM

## CCC1c2cc(OC)c(OC)cc2CN1c1nc(-c2ncccn2)nc2c1CCC2 (stereo not shown) [Example 94, 4-(1-Ethyl-5,6-dimethoxy-isoindolin-2-yl)-2-pyrimidin-2-yl-6,7-dihydro-5H-cyclopenta[d]pyrimidine]
  EC50: 350 nM

## CCC1c2cc(F)c(F)cc2CN1c1ccnc(C(=O)O)n1 (stereo not shown) [Example 95, 4-(1-Ethyl-5,6-difluoroisoindolin-2-yl)pyrimidine-2-carboxylic Acid]
  EC50: 2000 nM
